Reference: paper PMC3115046, “Analyzing Airway Inflammation with Chemical Biology: Dissection of Acidic Mammalian Chitinase Function with a Selective Drug-like Inhibitor” (Chemistry & Biology, 2011)
Like-named read-outs stand apart in the source and are kept apart here.

Key:
[1] = tested on: OVA-specific tLN cell cultures; test: Cytokine and chemokine secretion from draining tLN cell cultures (Luminex); type: in vivo, BALB/c mice
Protocol: All experiments used female BALB/c mice, 6- to 8-weeks-old. Mice were kept in individually ventilated cages and all experiments were conducted under UK Home Office guidelines. Mice were sensitized (day 0) and boosted (day 14) i.p. with 20 μg OVA (Grade V, Sigma) adsorbed to 9% potassium alum. Mice were either challenged on day 28 and 30 with 50 μg OVA or PBS by the intratracheal route or were challenged with 1% OVA or PBS by aerosol for 30 min on day 28 to day 30. […] Necropsies were performed 24 hr after the final airway challenge.
The draining thoracic lymph nodes (tLN) were dissected and single-cell suspensions made before being plated out at 1 × 10^6 cells/mL in 96-well plates (RPMI 1640 supplemented with L-glutamine, penicillin streptomycin, and FCS). Cells were stimulated with 500 μg/mL OVA and incubated for 72 hr at 37°C, 5% CO2. MIP-1α levels were measured in cell-free supernatants using a Luminex kit (Invitrogen) and samples were read with a Luminex 100 multiplex bead array system.

[2] = biological target: human chitotriosidase (hCHIT1) (Homo sapiens, UniProt Q13231); test: Chitinase activity assay with fluorescent 4-MU substrate, hCHIT1; type: biochemical; settings: read-out: IC50 against hCHIT1
Chain of human chitotriosidase (hCHIT1) (Q13231 22-466): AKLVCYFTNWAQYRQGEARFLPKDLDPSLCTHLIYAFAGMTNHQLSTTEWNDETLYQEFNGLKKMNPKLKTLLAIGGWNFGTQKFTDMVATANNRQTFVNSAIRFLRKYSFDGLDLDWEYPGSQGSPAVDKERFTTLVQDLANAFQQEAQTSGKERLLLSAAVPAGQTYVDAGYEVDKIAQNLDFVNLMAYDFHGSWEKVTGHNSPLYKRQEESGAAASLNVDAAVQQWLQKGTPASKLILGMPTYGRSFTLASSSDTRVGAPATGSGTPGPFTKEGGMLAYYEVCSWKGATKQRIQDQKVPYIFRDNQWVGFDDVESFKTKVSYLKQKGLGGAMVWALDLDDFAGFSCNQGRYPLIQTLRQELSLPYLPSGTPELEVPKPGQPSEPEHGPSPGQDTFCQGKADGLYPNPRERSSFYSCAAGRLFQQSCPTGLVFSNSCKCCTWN

human AMCase (hAMCase) = biological target: T1, human AMCase (hAMCase) (Homo sapiens, UniProt Q9BZP6); test: Chitinase activity assay with fluorescent 4-MU substrate, hAMCase; type: biochemical
T1 construct: A fragment corresponding to hAMCase 22-398 (bp 64–1194) was ligated into the pPIC9 vector; made in house; host or cells: Pichia pastoris GS115
T1 sequence (Q9BZP6 22-398): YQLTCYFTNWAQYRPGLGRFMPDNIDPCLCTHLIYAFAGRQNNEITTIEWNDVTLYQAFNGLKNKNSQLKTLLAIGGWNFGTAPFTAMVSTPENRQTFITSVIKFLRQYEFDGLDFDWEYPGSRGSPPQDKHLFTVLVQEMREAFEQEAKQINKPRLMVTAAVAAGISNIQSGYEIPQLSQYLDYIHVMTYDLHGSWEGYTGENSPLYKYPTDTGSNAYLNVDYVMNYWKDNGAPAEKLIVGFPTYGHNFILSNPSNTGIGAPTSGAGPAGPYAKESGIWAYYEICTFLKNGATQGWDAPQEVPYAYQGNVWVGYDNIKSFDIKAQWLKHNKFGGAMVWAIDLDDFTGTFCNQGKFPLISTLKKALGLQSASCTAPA
Protocol: A fragment corresponding to hAMCase 22-398 (bp 64–1194) was ligated into the pPIC9 vector (Invitrogen) using the Xho I and Not I restriction sites. The enzyme was subsequently overexpressed as a secreted protein from the Pichia pastoris GS115 strain and purified using a combination of affinity chromatography and size-exclusion chromatography. Pure hAMCase was spin concentrated to 37 mg/ml in 25 mM HEPES (pH 6.8), 250 mM NaCl. The protein was crystallized at 30°C from 75% saturated NaCl, 0.1 M HEPES (pH 7.4) using the hanging drop method. Crystals grew to an approximate size of 200 × 100 × 50 μm. Crystals were cryoprotected in 50% saturated NaCl, 20% glycerol in 0.1 M HEPES (pH 7.4) and subsequently flash frozen in liquid nitrogen. […] Data for hAMCase were collected at ID14-EH1 at the European Synchrotron Radiation Facilities (ESRF) using a cryostream of cold nitrogen (110 K). […]
Chitinase activity of hAMCase, lung homogenates, or AMCase COS-7 cell supernatants (serum-free) were determined using 4-methylumbelliferyl-β-D-N,N′,N″-triacetylchitotrioside and 4-methylumbelliferyl-β-D-N,N′,N″-triacetylchitobioside, as described. […] Liberated 4-methlyumberlliferone was quantified using a microplate fluorometer (excitation 360 nm/emission 440 nm). Ki and IC50 values were determined in the presence of different concentrations of inhibitor. […]

lung chitinase activity = test: Chitinase activity in lung homogenates, OVA allergic inflammation model; type: in vivo, BALB/c mice
Protocol: Samples were incubated with substrate (0.022 mM in 100 mM citric acid, 200 mM sodium phosphate buffer [pH 5.2]) in a final volume of 50 μL. After a 10 min incubation at 37°C, the reaction was stopped with the addition of 500 μl sodium carbonate buffer (0.5 M sodium carbonate and 0.5 M sodium bicarbonate [pH 10.6]). Liberated 4-[…] was quantified using a microplate fluorometer (excitation 360 nm/emission 440 nm). Ki and IC50 values were determined in the presence of different concentrations of inhibitor. Experiments were performed in duplicate or triplicate. All experiments used female BALB/c mice, 6- to 8-weeks-old. Mice were kept in individually ventilated cages and all experiments were conducted under UK Home Office guidelines. Mice were sensitized (day 0) and boosted (day 14) i.p. with 20 μg OVA (Grade V, Sigma) adsorbed to 9% potassium alum. Mice were either challenged on day 28 and 30 with 50 μg OVA or PBS by the intratracheal route or were challenged with 1% OVA or PBS by aerosol for 30 min on day 28 to day 30. […] Necropsies were performed 24 hr after the final airway challenge. Protein from dissected lung was homogenized (TissueLyser, QIAGEN) in lysis buffer containing protease cocktail inhibitor (Sigma). Samples were incubated for 20 min on ice, prior to centrifugation 10,000 × g to removed cell debris. Protein amounts were quantified with Coomassie (Bradford) Reagent. […]

## Cn1cnc2c1c(=O)n(CCCn1c(=O)c3[nH]cnc3n(C)c1=O)c(=O)n2C [bisdionin F]
[1]; 5 mg/kg i.p., OVA-challenged animals, 72 hr culture
  MIP-1α secretion from tLN cell cultures: enhanced
[1]; allergic mice, data not shown
  IL-17 secretion in tLN cultures: not significantly altered
  KC secretion in tLN cultures: not significantly altered
[2]; listed as Bisdionin F
  IC50: 17.1 ± 1 µM
[2]
  IC50: 17 µM
Human AMCase (hAMCase); 4-MU substrate, pH 5.2, 10 min 37°C, read-out: IC50 against hAMCase
  IC50: 0.92 ± 0.04 µM
Human AMCase (hAMCase); hAMCase vs hCHIT1
  selectivity for AMCase over CHIT1: 20 fold
Lung chitinase activity; 5 mg/kg i.p., control PBS and OVA-challenged mice, about 24 hr after last challenge
  chitinase activity in the lungs: significantly reduced
Lung chitinase activity; i.p., allergic mice
  lowest dose at which any chitinase inhibition was observed: 1 mg/kg
